Assay results from patent US5177075A, “Substituted dihydroisoquinolinones and related compounds as potentiators of the lethal effects of radiation and certain chemotherapeutic agents; selected compounds, analogs and process” (priority 1991, dated 1993).
pIC50: −log10 of the molar value. Where a name gives a salt, the structure may show the parent alone. Read-outs that look alike come from different tables or passages of the source.

Tests used:
[1] = target: T1, Poly(ADP-ribose) synthetase (Bos taurus, UniProt P18493); experiment: Inhibition of Poly(ADP-ribose) synthetase; type: biochemical, calf
T1 construct: Poly (ADP-ribose) synthetase from calf thymus; from tissue; host or cells: calf thymus
T1 sequence (P18493 whole entry): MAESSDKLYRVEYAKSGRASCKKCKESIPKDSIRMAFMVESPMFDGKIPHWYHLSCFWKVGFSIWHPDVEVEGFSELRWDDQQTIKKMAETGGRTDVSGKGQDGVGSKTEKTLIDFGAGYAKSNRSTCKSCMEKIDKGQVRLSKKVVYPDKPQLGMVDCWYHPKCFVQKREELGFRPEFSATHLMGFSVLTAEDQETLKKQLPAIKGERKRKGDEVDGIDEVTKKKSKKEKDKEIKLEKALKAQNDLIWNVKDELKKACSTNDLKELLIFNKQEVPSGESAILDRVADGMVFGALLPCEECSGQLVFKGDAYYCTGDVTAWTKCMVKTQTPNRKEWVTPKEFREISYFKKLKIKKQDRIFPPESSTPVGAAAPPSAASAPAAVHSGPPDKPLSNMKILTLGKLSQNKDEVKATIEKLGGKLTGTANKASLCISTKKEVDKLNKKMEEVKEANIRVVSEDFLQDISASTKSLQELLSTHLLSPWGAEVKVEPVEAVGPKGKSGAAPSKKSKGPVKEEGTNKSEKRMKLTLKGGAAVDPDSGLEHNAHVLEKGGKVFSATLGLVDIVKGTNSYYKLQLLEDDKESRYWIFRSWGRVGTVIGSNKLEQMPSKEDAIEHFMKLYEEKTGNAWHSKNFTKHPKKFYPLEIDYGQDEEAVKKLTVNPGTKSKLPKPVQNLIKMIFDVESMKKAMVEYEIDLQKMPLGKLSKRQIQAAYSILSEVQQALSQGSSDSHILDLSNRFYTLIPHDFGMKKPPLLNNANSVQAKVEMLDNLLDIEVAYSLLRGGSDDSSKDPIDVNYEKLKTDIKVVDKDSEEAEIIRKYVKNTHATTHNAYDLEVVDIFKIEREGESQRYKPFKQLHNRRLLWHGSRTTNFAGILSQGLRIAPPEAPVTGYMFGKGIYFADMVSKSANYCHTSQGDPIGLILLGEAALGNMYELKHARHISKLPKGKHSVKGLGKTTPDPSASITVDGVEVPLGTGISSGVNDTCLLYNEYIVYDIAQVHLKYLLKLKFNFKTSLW
Method: The enzyme assay is performed by placing the following in small glass tubes kept at 4°: 100 μl of buffer consisting of 0.5M Tris-HCl pH 8.0, 50 mM MgCl2, and 5 mM dithiothreitol; 50 μl of 1 mM [^3 H]nicotinamide adenine dinucleotide having a specific activity of 15 μCi/μmol; 100 μl of calf thymus DNA (0.3 mg/ml in water); 50 μl of calf thymus histone (Sigma, Type IIA, 0.5 mg/ml); 50 μl of inhibitor or inhibitor solvent; 150 μl of enzyme. The components are thoroughly mixed and warmed to 30° C. in a water bath. After 15 minutes the reaction is stopped by adding 2 ml of ice cold 15% trichloroacetic acid and the tubes are placed on ice for 15 minutes. The precipitate is collected on glass fiber filters and washed five times with ice cold 15% trichloroacetic acid. The filters were dried and radioactivity determined in a liquid scintillation counter.

V79 cells = experiment: In vitro radiosensitizing activity at 37°: shoulder modifying effects (reduction in Dq); type: cell-based; details: hypoxic V79 cells, class symbols
Method: The shoulder region represents the inherent repair capabilities of a given cell line. […] To determine the hypoxic x-ray dose response, cells are rendered hypoxic four hours prior to the addition of the test compound by placing them in a 37° C. incubator within an anaerobic glove chamber (Forma). […] Drug is added (0.1 ml into 2 ml media in petri dish) within the anaerobic chamber and drug treatment is at the highest nontoxic dose for one hour at 37°. The oxic x-ray dose response is determined in a similar manner except that all manipulations are carried out in air. […] Cytotoxicity controls (drug only, no irradiation) are included as well as oxic and hypoxic untreated controls (irradiation only, no drug). Immediately following irradiation, cells are rinsed twice with 2 ml fresh media prior to the addition of 5 ml of fresh media. The cells are then incubated at 37° C. After six days, dishes are stained with crystal violet and colonies of 50 or more cells are counted to determine percent surviving cells versus x-ray dose. […] This is expressed by percent reduction in Dq where Dq is defined as the dose at the intersection of the regression line for the logarithmic portion of the survival curve with the 100% survival level. This is taken to represent the width of the shoulder region of the survival curve.

L1210 cells = experiment: Inhibition of the repair of radiation-induced DNA damage as assessed by alkaline elution; type: cell-based; details: L1210 cells, 10 Gy x-rays, class symbols
Method: Inhibition of the Repair of Radiation-Induced DNA Damage as Assessed by Alkaline Elution The basic alkaline elution assay is carried out according to the procedure of K. W. Kohn, […]. Erickson, and L. A. Zwelling in DNA Repair: A Laboratory Manual of Research Procedures (eds. E. C. Freidburg and […]) with slight modifications. Briefly, suspension cultures of exponentially growing L1210 cells (total of 4×10^6 cells) are labeled with 0.02 μCi/ml of [^14 C] thymidine plus 1 nmol/ml of unlabeled thymidine for 24 hours prior to use. L1210 cells used as an internal standard are grown in media supplemented with 0.1 μCi/ml of [^3 H]thymidine and 1 nmol/ml unlabeled thymidine. For the elution protocol cells are removed from the culture flasks, centrifuged, and resuspended in fresh media. Drug treatment for experimental cells is for one hour at 37°. After the treatment period control and drug-treated cells are given a dose of 10 Gy of x-rays and incubated at 37° C. for 10 minutes to allow for repair. Samples consisting of 5×10^5 cells contained in 5 ml of ice cold PBS are deposited directly on 25 mm polycarbonate filters (2 micron pore size). The cells are washed with 5 ml of cold PBS, then lysed by the addition of 5 ml of lysis solution (0.2% SDS, 0.25M tetrasodium EDTA pH 9.7). All procedures commencing at the time of lysis are carried out in the dark. Subsequent to lysis samples are treated with 2 ml of lysis solution containing proteinase-K (0.5 mg/ml) for one hour. The filters are then eluted with tetrapropyl ammonium hydroxide/0.025M EDTA (free acid form)/0.1% SDS, pH 12.1, at a constant flow rate of 0.037 ml/min. Fractions of 2 ml are collected in scintillation vials. […] To each fraction collected and the filter solution 15 ml of modified Ready-Gel scintillation fluid containing 0.7% acetic acid is added. The frequency of single-stranded DNA breakage was calculated as described by Kohn, et al. The data is corrected for the number of single-strand breaks in the […] samples (~20%).

KHT fibrosarcoma tumors = experiment: In vivo assay for radiosensitization activity; parameters: species or system hybrid mice (B6C3F1); details: KHT tumors in mice, relative to misonidazole
Method: In Vivo Assay for Radiosensitization Activity
For this assay KHT fibrosarcoma tumors in hybrid mice (B6C3F1) weighing 20-25 g are used. The mice are randomized and implanted SC with the appropriate tumor brei on Day 0 (one implant/mouse). Samples from each donor tumor and/or from the final brei are incubated in thioglycolate media as a check for gross bacterial contamination. On Day 8 tumors are measured in two dimensions with calipers and animals with tumor masses in the range of 500 to 700 mg are selected for the assay. At this point the tumors contain approximately 20% hypoxic cells.
The test agents are dissolved in any of several vehicles at a fixed injection dose equal to 90-100% of the maximum tolerated dose. Additional suitable controls of test compound (no irradiation) and vehicle-injected and irradiated mice are also included. Mice are irradiated at a dose of 1700 RADs at various intervals both prior to and after intraperitoneal administration of the test agents.
By using these intervals, an indication of both the optimum time to irradiate and the degree of sensitization are obtained. Irradiation of the KHT tumors is by whole body irradiation of animals in movement restricting jigs at different total exposures as indicated. The x-ray source is a Phillips 320 KV instrument with a half-value thickness of 2.0 mm copper and a target to source distance of 17 inches, with a delivery rate of 2.0 Gy/minute. Animals are monitored for signs of acute toxicity after treatment.
After incubation for 12-16 days at 37° and staining, the colonies are counted. The data are expressed as % control versus time.

[2] = 30° C., 15 minutes, [3H]NAD, read-out: IC50

SMILES | pIC50 [1, 2] | further results
Oc1cccc2c(O)nccc12 [Example I, 1,5-Dihydroxyisoquinoline] | 6.85 | Shoulder Modification (% Reduction in DQ) (V79 cells): - (1-14%); Frequency of Unrepaired Strand Breaks (L1210 cells): + (101-200); In Vivo Radiosensitizing Activity (KHT fibrosarcoma tumors): +
O=C1NCCc2c(OCC(O)CN3CCCCC3)cccc21 (stereo not drawn) [Example IV, 3,4-Dihydro-5-[2-hydroxy-3-(1-piperidinyl)propoxy]-1(2H)-isoquinolinone] | 6.49 | Shoulder Modification (% Reduction in DQ) (V79 cells): +++ (≥45%)
Nc1cccc2c(=O)[nH]ccc12 [Example VIII, 5-Amino-1(2H)-isoquinolinone] | 6.62 | Shoulder Modification (% Reduction in DQ) (V79 cells): - (1-14%)
O=C1NCCc2c(OCC(O)Cc3ccccc3)cccc21 (stereo not drawn) [Example XL, 3,4-Dihydro-5-(2-hydroxy-3-phenylpropoxy)-1(2H)-isoquinolinone] | 6.47 | –
COc1cccc2c(=O)[nH]c(-c3ccccc3)cc12 [Example XX, 5-Methoxy-3-phenyl-1(2H)-isoquinolinone] | 5.67 | –
Nc1c[nH]c(=O)c2ccccc12 [Example XXV, 4-Amino-1(2H)-isoquinolinone monohydrochloride] | 6.18 | –
O=c1[nH]cc(Br)c2c(O)cccc12 [Example XXVI, 4-Bromo-5-hydroxy-1(2H)-isoquinolinone] | 7.21 | –
O=C1NCCc2c(OCCCN3CCCCC3)cccc21 [Example XXVII, 3,4-Dihydro-5-[3-(1-piperidinyl)propoxy]-1(2H)-isoquinolinone] | 6.08 | –
O=C1NCCc2c(OC[C@@H](O)CN3CCCCC3)cccc21 [L, (S)-3,4-Dihydro-5-[2-hydroxy-3-(1-piperidinyl)propoxy]-1(2H)-isoquinolinone] | 6.57 | –
COc1cccc2c(=O)[nH]ccc12 [XIV, 5-Methoxy-1(2H)-isoquinolinone] | 6.24 | –
O=C1NCCc2c(OC[C@H](O)CN3CCCCC3)cccc21 [XLIX, (R)-3,4-Dihydro-5-[2-hydroxy-3-(1-piperidinyl)propoxy]-1(2H)-isoquinolinone] | 6.48 | –
Oc1ncc(Br)c2ccccc12 [XXIII, 4-Bromo-1-isoquinolinol] | 6.44 | –
O=C1NCCc2c(OCC(O)CN3CCOCC3)cccc21 (stereo not drawn) [XXIX] | 5.82 | –
O=C1NCCc2c(OCC(O)CN3CCCC3)cccc21 (stereo not drawn) [XXVIII, 3,4-Dihydro-5-[2-hydroxy-3-(1-pyrrolidinyl)propoxy]-1-(2H)-isoquinolinone] | 6.11 | –
O=C1NCCc2c(OCCCCN3CCCCC3)cccc21 [XXXIV, 3,4-Dihydro-5-[4-(1-piperidinyl)butoxy]-1(2H)-isoquinolinone] | – | pIC50 [1]: 6.10
O=C1NCCc2c(OCC(O)COc3ccccc3)cccc21 (stereo not drawn) [XXXIX, 3,4-Dihydro-5-(2-hydroxy-3-phenoxypropoxy)-1(2H)-isoquinolinone] | 6.19 | –
CCCCOc1cccc2c1CCNC2=O [XXXVII, 5-Butoxy-3,4-dihydro-1(2H)-isoquinolinone] | 5.22 | –

The next lines start with results.

pIC50 [1, 2] | SMILES | further results
7.00 | O=C1NCCc2c(O)cccc21 [Example II, 3,4-Dihydro-5-hydroxy-1(2H)-isoquinolinone] | Shoulder Modification (% Reduction in DQ) (V79 cells): + (15-29%); Frequency of Unrepaired Strand Breaks (L1210 cells): ++ (201-300); In Vivo Radiosensitizing Activity (KHT fibrosarcoma tumors): +
6.38 | COc1cccc2c1CCNC2=O [Example V, 3,4-Dihydro-5-methoxy-1(2H)-isoquinolinone] | –
5.68 | CC(=O)Oc1cccc2c1CCNC2=O [Example VI, 5-(Acetyloxy)-3,4-dihydro-1(2H)-isoquinolinone] | –
5.28 | O=C1NCCc2c(OCc3ccccc3)cccc21 [Example VII, 3,4-Dihydro-5-(phenylmethoxy)-1(2H)-isoquinolinone] | –
5.59 | O=C1NCCc2c(NCc3ccccc3)cccc21 [Example X, 3,4-Dihydro-5-[(phenylmethyl)amino]-1(2H)-isoquinolinone] | –
4.25 | CC(=O)Nc1cccc2c1CCNC2=O [Example XI, N-(1,2,3,4-Tetrahydro-1-oxo-5-isoquinolinyl)acetamide] | –
6.39 | Cl.Nc1cccc2c1CCNC2=O [IX, 5-Amino-3,4-dihydro-1(2H)-isoquinolinone, monohydrochloride] | Shoulder Modification (% Reduction in DQ) (V79 cells): - (1-14%); Frequency of Unrepaired Strand Breaks (L1210 cells): +++ (301-400)
6.01 | CN(C)COc1cccc2c1CCNC2=O [XIII] | –
5.81 | CSC1=NCCc2c(C)cccc21 [XIX, 3,4-Dihydro-5-methyl-1-(methylthio)-isoquinoline] | –
6.22 | O=C1NCCc2c(OCCc3ccccc3)cccc21 [XLI, 3,4-Dihydro-5-(phenylethoxy)-1(2H)-isoquinolinone] | –
7.10 | COc1cccc2c(=O)[nH]nc(C)c12 [XLII, 5-Methoxy-4-methyl-1(2H)phthalazinone] | –
6.00 | CCc1cccc2c1CCNC2=O [XV, 5-Ethyl-3,4-dihydro-1(2H)-isoquinolinone] | Shoulder Modification (% Reduction in DQ) (V79 cells): - (1-14%); Frequency of Unrepaired Strand Breaks (L1210 cells): + (101-200)
6.51 | O=C1NCCc2c(Cl)cccc21 [XVI, 5-Chloro-3,4-dihydro-1(2H)-isoquinolinone] | –
6.24 | COc1cccc2c1CCN=C2SC [XVII, 3,4-Dihydro-5-methoxy-1-(methylthio)-isoquinoline] | –
6.13 | Cc1cccc2c1CC(C)NC2=O (stereo not drawn) [XVIII, 3,4-Dihydro-3,5-dimethyl-1(2H)-isoquinolinone] | –
6.70 | CNCC(O)COc1cccc2c1CCNC2=O (stereo not drawn) [XXXI, 3,4-Dihydro-5-[2-hydroxy-3-(methylamino)propoxy]-1(2H)-isoquinolinone] | –
6.48 | CNCCCOc1cccc2c1CCNC2=O [XXXII, 3,4-Dihydro-5-[3-methylamino)propoxy]-1(2H)-isoquinolinone hydrochloride] | –
6.09 | O=C1NCCc2c(OCCN3CCCCC3)cccc21 [XXXIII, 3,4-Dihydro-5-[2-(1-piperidinyl)ethoxy]-1(2H)-isoquinolinone] | –
5.59 | CCOc1cccc2c1CCNC2=O [XXXV, 5-Ethoxy-3,4-dihydro-1(2H)-isoquinolinone] | –
6.96 | CCCOc1cccc2c1CCNC2=O [XXXVI, 3,4-Dihydro-5-propoxy-1(2H)-isoquinolinone] | –
5.82 | COCC(O)COc1cccc2c1CCNC2=O (stereo not drawn) [XXXVIII, 3,4-Dihydro-5-(2-hydroxy-3-methoxypropoxy)-1(2H)-isoquinolinone] | –
6.00 | CCN(CC)CC(O)COc1cccc2c1CCNC2=O (stereo not drawn) [XXX] | –
